Reference: BindingDB's records for doi:10.7270/Q2VQ313H (Nmmlsc, 2008)
pEC50: −log10 of the molar value. Where a name gives a salt, the structure may show the parent alone.

Molecular target: Estrogen receptor beta (Homo sapiens, UniProt Q92731)
Assay: ERbeta binders displacing fluorescent estradiol, dose response, cell-based, Cos7 ERbeta-GFP, E2-Alexa633, flow cytometry (AID 1221)
[1] = inactive by the depositor's call

Sequence of Estrogen receptor beta (Q92731 whole entry): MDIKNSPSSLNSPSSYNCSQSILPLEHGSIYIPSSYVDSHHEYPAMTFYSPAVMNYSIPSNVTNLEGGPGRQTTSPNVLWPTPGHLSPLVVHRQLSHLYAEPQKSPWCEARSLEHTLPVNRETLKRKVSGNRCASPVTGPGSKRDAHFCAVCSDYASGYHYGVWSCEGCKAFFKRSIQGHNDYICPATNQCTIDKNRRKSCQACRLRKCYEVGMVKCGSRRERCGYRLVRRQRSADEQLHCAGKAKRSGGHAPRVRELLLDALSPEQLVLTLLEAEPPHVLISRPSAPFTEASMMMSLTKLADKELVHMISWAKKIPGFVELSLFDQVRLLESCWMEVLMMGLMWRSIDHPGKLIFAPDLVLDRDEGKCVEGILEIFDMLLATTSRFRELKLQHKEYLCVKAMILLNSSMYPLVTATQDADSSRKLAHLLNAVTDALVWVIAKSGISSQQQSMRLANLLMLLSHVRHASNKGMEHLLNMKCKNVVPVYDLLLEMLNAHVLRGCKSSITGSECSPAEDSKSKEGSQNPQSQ

| Structure (SMILES) | pEC50 [1] | pEC50 |
| --- | --- | --- |
| CCn1nnc(NC(=O)CSc2ccc(Cl)cc2)n1 [2-(4-chlorophenyl)sulfanyl-N-(2-ethyl-1,2,3,4-tetrazol-5-yl)ethanamide] | – | < 5.00 |
| CCc1ccc(-c2nn(-c3ccccc3)cc2CSC(=N)N)cc1 [2-[[3-(4-ethylphenyl)-1-phenyl-pyrazol-4-yl]methyl]isothiourea;hydrochloride] | – | 7.40 |
| CCC(=O)Oc1ccc(C(CC)C(CC)c2ccc(OC(=O)CC)cc2)cc1 (centres undefined) [HEXESTROL DIPROPIONATE] | – | 8.11 |
| O=C(COC(=O)CCC(=O)c1cccs1)NCc1ccco1 [4-keto-4-(2-thienyl)butyric acid [2-(2-furfurylamino)-2-keto-ethyl] ester] | – | 8.76 |
| O=C(OCC(=O)N1CCN(C(=O)c2ccco2)CC1)c1cc(-c2ccco2)nc2ccccc12 [2-(2-furanyl)-4-quinolinecarboxylic acid [2-[4-[2-furanyl(oxo)methyl]-1-piperazinyl]-2-oxoethyl] ester] | 7.79 | – |
| COc1ccc(CNC(=O)c2cc(-c3cccs3)on2)cc1 [MLS000087249] | 7.00 | – |
| Cc1cc(-c2nn3c(-c4ccccc4)nnc3s2)c2ccccc2n1 [2-methyl-4-(3-phenyl[1,2,4]triazolo[3,4-b][1,3,4]thiadiazol-6-yl)quinoline] | 5.38 | – |
| COc1ccccc1N1CCN(C(=O)c2ccc3nc(-c4ccco4)c(-c4ccco4)nc3c2)CC1 [2,3-di-2-furyl-6-{[4-(2-methoxyphenyl)piperazin-1-yl]carbonyl}quinoxaline] | – | 9.06 |
| Nc1ccc(-c2nc3cc([N+](=O)[O-])ccc3[nH]2)cc1 | 5.63 | – |
| CC(=O)Oc1ccc(C2Nc3c(C(=O)O)ccc([N+](=O)[O-])c3C3C=CCC32)cc1 (centres undefined) [4-(4-acetoxyphenyl)-9-nitro-3a,4,5,9b-tetrahydro-3H-cyclopenta[c]quinoline-6-carboxylic acid] | – | < 5.00 |
| O=C1C=C/C(=C2/Nc3ccc4ccccc4c3C3=C2CCC3)C=C1O [SMR000184811] | – | < 5.00 |
| C[C@]12CC[C@@H]3c4ccc(O)cc4C(=O)C[C@H]3[C@@H]1CC[C@@H]2O [(8R,9S,13S,14S,17S)-13-methyl-3,17-bis(oxidanyl)-8,9,11,12,14,15,16,17-octahydro-7H-cyclopenta[a]phenanthren-6-one] | 7.42 | – |
| Cc1ccc(C(=O)N/N=C/c2ccc([N+](=O)[O-])s2)cc1 [4-methyl-N-[(5-nitro-2-thiophenyl)methylideneamino]benzamide] | 7.15 | – |
| Nc1ncnc2c1ncn2C1CCC(CO)C(O)C1 (centres undefined) [5-(6-aminopurin-9-yl)-2-(hydroxymethyl)-1-cyclohexanol] | – | 8.67 |
| O=C(c1cc2ncc(Br)cn2n1)N1CCN(C(=O)c2ccco2)CC1 [6-bromo-2-{[4-(2-furoyl)-1-piperazinyl]carbonyl}pyrazolo[1,5-a]pyrimidine] | – | 8.56 |

Other lines, results leading:

| pEC50 [1] | pEC50 | Structure (SMILES) |
| --- | --- | --- |
| 6.78 | – | Cc1cc(C)c2c(c1)[C@@H]1C=CC[C@@H]1[C@H](c1ccc(S(=O)(=O)N3CCOCC3)cc1)N2 [(3aS,4R,9bR)-6,8-dimethyl-4-[4-(morpholin-4-ylsulfonyl)phenyl]-3a,4,5,9b-tetrahydro-3H-cyclopenta[c]quinoline] |
| – | < 5.00 | CC(=O)c1ccc2c(c1)C1C=CCC1C(c1cccc([N+](=O)[O-])c1)N2 (centres undefined) [1-[4-(3-nitrophenyl)-3a,4,5,9b-tetrahydro-3H-cyclopenta[c]quinolin-8-yl]ethanone] |
| – | 5.90 | O=C(Nc1cc(C(F)(F)F)ccc1N1CCOCC1)C1Cc2ccccc2CN1C(=O)c1ccco1 (centres undefined) [2-(2-furoyl)-N-[2-morpholino-5-(trifluoromethyl)phenyl]-3,4-dihydro-1H-isoquinoline-3-carboxamide] |
| – | 6.74 | CC(=O)c1ccc2c(c1)[C@@H]1C=CC[C@@H]1[C@H](c1cc3c(cc1Br)OCO3)N2 |
| – | 9.19 | O=C(O)c1ccc([N+](=O)[O-])c2c1NC(c1ccccc1)C1CC=CC21 (centres undefined) [9-nitro-4-phenyl-3a,4,5,9b-tetrahydro-3H-cyclopenta[c]quinoline-6-carboxylic acid] |
| 6.36 | – | Cc1oc2cc(O)ccc2c(=O)c1Oc1ccccc1 [2-methyl-7-oxidanyl-3-phenoxy-chromen-4-one] |
| 5.64 | – | COc1ccc(NS(=O)(=O)c2ccc3c(c2)[C@H]2C=CC[C@H]2[C@@H](c2ccc(C(=O)O)cc2)N3)cc1 |
| 6.14 | – | O=C(O)c1cc(Cl)c2c(c1)[C@@H]1C=CC[C@@H]1[C@H](c1ccc(S(=O)(=O)N3CCOCC3)cc1)N2 [(3aS,4R,9bR)-6-chloranyl-4-(4-morpholin-4-ylsulfonylphenyl)-3a,4,5,9b-tetrahydro-3H-cyclopenta[c]quinoline-8-carboxylic acid] |
| 7.08 | – | CCCCOC(=O)c1c(C)oc2ccc(NS(=O)(=O)c3ccc4c5c(cccc35)C(=O)N4)cc12 [2-methyl-5-[(2-oxo-1H-benzo[cd]indol-6-yl)sulfonylamino]-3-benzofurancarboxylic acid butyl ester] |
